The target of assay [1] is T1, D2 receptor (Homo sapiens, UniProt P14416).
T1 construct: expressed in transfected cells; host or cells: HEK293
Briefly: D2 receptor affinity assay (radioligand competition, 3H-7-OH-DPAT). The format is binding. The conditions noted are these: cloned D2 receptor expressed in HEK293 cell line; 3H-7-OH-DPAT 1 nM. As to the method: (§1) Bioactivity Test • I. D2 receptor affinity assay: The affinity of the compound to D2 receptor was determined by radioligand competition assay, and the cloned D2 receptor was expressed in HEK293 cell line. • II. D2 receptor function assay: The ability of the compound to antagonize the D2 receptor was determined using a calcium mobilization assay (FLIPR). • III. DAT receptor function assay: The ability of the compound to inhibit DAT was determined by neurotransmitter transporter absorption assay.
• Experimental buffer: 50 mM Tris-HCl, pH 7.4, 5 mM MgCl2 • Washing buffer: 50 mM Tris-HCl pH 7.4, stored at 4° C. ready for use.
• The compound and positive control 7-OH-DPAT were serially diluted with DMSO, with the initial concentration of 2 mM and 4 times serial dilution, a total of 10 concentrations. 1 μL was transferred to the designated position of the 96-well plate. • 1 μL droperidol (final concentration 10 μM) was added to the positive control well. 1 μL DMSO was added to the negative control well.
• Receptor cell membrane was diluted to 10 μg/well with corresponding experimental buffer, with 100 μL cell membrane/well.
• 3H-7-OH-DPAT was diluted to 2 nM with corresponding experimental buffer, and the final concentration was 1 nM.
• After 100 μL of cell membrane and isotope were added, respectively, the reaction plate of the D2 receptor was incubated at room temperature for 1 hour. The GF/C filter plate was soaked in 0.3% PEI solution for more than half an hour. After the reaction was completed, the cell membrane was collected on the GF/C filter plate using the […], washed 4 times with cold washing buffer, and then dried in an oven at 50° C. for 1 hour. The dried GF/C filter plate was sealed at the bottom, 50 μL of scintillation fluid was added to each well and the well was sealed. Reads were obtained by MicroBeta and the data was analyzed using GraphPad Prism 5.0.
Ki=IC50/(1+isotope concentration/Kd)
For orientation: In a radioligand displacement assay an active substance lowers the binding of a labelled ligand.

Another assay addresses DAT (Homo sapiens, UniProt Q01959). As to the kind of experiment: DAT transporter assay (neurotransmitter transporter absorption assay). The format is cell-based. The protocol:
as §1
• HBSS1×, REPES 20 mM, BSA 0.1%.
• Lyophilized fluorescent dye 1 vial, Assay buffer 10 mL.
• BTCP—hydrochloride (Sigma)
• i) The medium was preheated in 37° C. water bath in advance for more than 30 minutes for later use. • j) The preheated medium was taken out, disinfected with 75% alcohol, and put into a biosafety cabinet. • k) The cultured cells were taken out from the […], and the medium was removed by a vacuum pump. 1× DPBS was added, incubated for a moment, and then removed by a vacuum pump. Appropriate amount of 0.05% trypsin-EDTA was added for cell digestion. The digestion was terminated by 10% FBS medium, and the cells were pipetted and dispersed. • l) The dispersed cells were transferred into a 50 mL centrifuge tube with a pipette.
• a) The reference compound was diluted in a ratio of 1:3 to 10 concentration gradients with the detection buffer containing 0.1% BSA, with the highest concentration being 2 μM. The compound to be tested was diluted to 20 uM with the detection buffer containing 0.1% BSA. • b) A centrifuge (750 rpm, 15 s) was used to spin off the culture solution in the cell culture plate, and the compound solution in step 1 was transferred to the cell culture plate (25 uL/well). • HC (High control): 25 μL of 0.1% BSA detection buffer containing 0.2% DMSO. • LC (Low control): 25 μL of solution containing 2 μM positive antagonist. • c) After centrifugation at 300 rpm for 15 seconds, the plate was incubated at 37° C. for 30 minutes. After the incubation with the compound was completed, a dye solution (25 μL/well) was added and incubated at 37° C. for 30 minutes.
Inhibitor % activity=100−(signal value per well−average value for LC well)/(average value for H well−average value for LC well)*100%.

In assay [2] the target is T1, D2 receptor. As to the kind of experiment: D2 receptor function assay, calcium mobilization (FLIPR). The format is cell-based. The note with it: HEK293, antagonism of D2 receptor. The protocol: as §1
• Cell line: HEK293 • DMEM medium (Invitrogen) • Fetal bovine serum (FBS, Invitrogen) • L-Glutamine (Invitrogen) G418 (Invitrogen) • Blasticidin (Invitrogen)
• Fluo-4 Direct Kit (Invitrogen)
• 250 mM Probenecid solution was formulated: according to the kit instructions, 1 mL of FLIPR buffer salt solution was added to 77 mg probenecid just before needed. • 2× (8 μM) Fluo-4 Direct™ loading buffer was formulated: the number of tubes in Fluo-4 Direct™ needed for the experiment was melted in advance. Just before needed, 10 ml of FLIPR buffer salt solution and 0.2 mL of 250 mM Probenecid solution were added to each tube and vortexed in dark for more than 5 minutes.
• a) One tube of cells was taken from the liquid nitrogen tank and quickly thawed in 37° C. water bath. • b) The cell suspension was added to a centrifuge tube to which the preheated 20 ml medium was added in advance. • c) The centrifuge tube was centrifuged at 1000 rpm for 5 minutes at room temperature. • d) The supernatant was slowly decanted to avoid affecting the precipitated cells. • e) The cells were resuspended with 10-30 ml medium by pipetting the cells gently with a pipette. • f) The viability and number of cells were calculated with the cell counter. • g) The cells were diluted to 1×10^5 cells/ml with medium, and inoculated in the 384-well polylysine coated cell plate at 20 μL/well. • h) The plate was incubated in an incubator at 5% CO2, 37° C. for 16 to 20 hours.
10 μL of experimental buffer salt solution was added into the cell plate according to the set program, and the fluorescence signal was read. 10 μL of agonist reference compound was further added at a given concentration to the cell plate and the fluorescence signal was read. After reading, the data was derived by “Max-Min” and “Read 90 to Maximum Allowed” methods in the software and EC80 of the corresponding cell line was calculated, and the reference compound with a concentration of 6× EC80 was prepared. • f) The FLIPR instrument software was run. 10 μL of the compound to be tested and the reference compound at a given concentration were added into the cell plate according to the set program, and the fluorescence signal was read. 10 μL of reference compound agonist was further added at a concentration of 6× EC80 to the cell plate and the fluorescence signal was read. • g) Data Analysis • Calculation formula for data in the project:
Inhibitor % activity=100−(signal value per well−average value for high dose control group of inhibitor)/(average value for DMSO control group−average value for high dose control group of inhibitor)*100%.
A general note: Calcium assays in cells follow changes in intracellular calcium, usually with a dye or a luminescent sensor.

The test system of assay [3] is PCP-induced high locomotor activity in mice. As to the kind of experiment: Phencyclidine (PCP) induced high locomotor activity (LMA) in mice. Also on record: Distance resulting from the activity, First 30 min / Distance resulting from the activity, Last 30 min: unit not given here. Type of assay: in vivo. The note with it: PCP 5.0 mg/kg s.c.; 5 mg/kg p.o. (low dose group; olanzapine positive control); male ICR mice. The text has this:
• 1. The effect of the compound on phencyclidine (PCP) induced high locomotor activity (LMA) in mice was detected.
The test compound MDC was milky white powder and stored in a shade and cool place (freshly formulated with 1% DMSO before use). […] Phencyclidine (PCP), purchased from Sigma Aldrich, was a grayish white powder (freshly formulated with normal saline before use). 1% DMSO was formulated by diluting pure DMSO (purity>99.5, purchased from Sigma-Aldrich) with normal saline.
(§2) Male ICR mice having weight 22±2 g were kept at 8 mice/cage with 12/12 hours light/dark cycle, temperature 23° C.±1° C., humidity 50% to 60%, free to eat and drink water.
The administration volume was 0.1 ml/10 g body weight; PCP was formulated with normal saline at a dose of 5 mg/kg.
The test compound MDC and olanzapine were administered by gavage and PCP was administered by subcutaneous injection.
(§3) After one week of acclimation, mice were randomly divided into 6 groups according to their body weight: negative control group, model group, positive control group, and low dose group, medium dose group and high dose group for the test compound. 8-10 animals/group.
(§4) Group 1: Negative control group: Normal saline (s.c.)+1% DMSO (10.0 ml/kg, p.o.);
Group 2: Model group: PCP (5.0 mg/kg, s.c.)+1% DMSO (10.0 ml/kg, p.o.);
Group 4: MDC low dose group: PCP (5.0 mg/kg, s.c.)+MDC (5 mg/kg, p.o.);
Group 5: MDC medium dose group: PCP (5.0 mg/kg, s.c.)+MDC (10 mg/kg, p.o.);
Group 6: MDC high dose group: PCP (5.0 mg/kg, s.c.)+MDC (20 mg/kg, p.o.).
After oral administration, the animals were immediately placed in a locomotor activity box and recorded by Shanghai Jiliang ( ? ) animal video analysis system for 1 hour.
(§5) After the experiment, the activity of the animals within 1 hour was analyzed using the trajectory analysis software of Shanghai Jiliang animal video analysis system to obtain the total distance resulting from the activity.

In assay [4] the test system is Amphetamine-induced high locomotor activity in mice. Briefly: Amphetamine-induced high locomotor activity (LMA) in mice. The note with it: Amphetamine 1.0 mg/kg s.c.; 5 mg/kg p.o. (low dose group; olanzapine positive control); male ICR mice. Also on record: Distance resulting from the activity, First 30 min / Distance resulting from the activity, Last 30 min: unit not given here. Type of assay: in vivo. As to the method:
The test compound MDC was a milky white powder and stored in a shade and cool place (formulated with 1% DMSO before use). […] Amphetamine, purchased from Sigma-Aldrich, was a white powder (formulated with normal saline before use). 1% DMSO was formulated by diluting pure DMSO (purity>99.5, purchased from Sigma) with normal saline.
as §2
The administration volume was 0.1 ml/10 g body weight; Amphetamine was freshly formulated with normal saline at a dose of 1.0 mg/kg and administered subcutaneously.
as §3, §4
Group 2: Model group: Amphetamine (1.0 mg/kg, s.c.)+1% DMSO (10.0 ml/kg, p.o.);
Group 4: MDC low dose group: Amphetamine (1.0 mg/kg, s.c.)+MDC (5 mg/kg, p.o.);
Group 5: MDC medium dose group: Amphetamine (1.0 mg/kg, s.c.)+MDC (10 mg/kg, p.o.);
Group 6: MDC high dose group: Amphetamine (1.0 mg/kg, s.c.)+MDC (20 mg/kg, p.o.).
After administration, the animals were immediately placed in a locomotor activity box and recorded by Shanghai Jiliang animal video analysis system for 1 hour.
as §5

The target of assay [5] is T1, D2 receptor. The note with it: Bioorg. Med. Chem. 17 (2009) 1716-1723; cited from earlier work.
Another assay has as its target T2, D4 receptor (Homo sapiens, UniProt P21917).
T2 sequence (P21917 1-419): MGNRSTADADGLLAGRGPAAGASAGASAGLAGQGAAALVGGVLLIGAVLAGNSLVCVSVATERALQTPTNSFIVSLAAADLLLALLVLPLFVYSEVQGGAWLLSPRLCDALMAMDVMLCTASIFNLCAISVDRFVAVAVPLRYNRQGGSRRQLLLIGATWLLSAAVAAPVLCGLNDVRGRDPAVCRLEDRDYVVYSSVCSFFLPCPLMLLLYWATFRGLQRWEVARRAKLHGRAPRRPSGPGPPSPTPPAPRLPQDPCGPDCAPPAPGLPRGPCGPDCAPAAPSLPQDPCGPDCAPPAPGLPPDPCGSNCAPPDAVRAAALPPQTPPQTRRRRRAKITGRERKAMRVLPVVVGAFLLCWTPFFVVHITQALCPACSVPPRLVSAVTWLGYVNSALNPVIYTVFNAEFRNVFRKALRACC
The conditions noted are these: Bioorg. Med. Chem. 17 (2009) 1716-1723; cited from earlier work.

The structures appear in SMILES notation.

T1 sequence (P14416 whole entry): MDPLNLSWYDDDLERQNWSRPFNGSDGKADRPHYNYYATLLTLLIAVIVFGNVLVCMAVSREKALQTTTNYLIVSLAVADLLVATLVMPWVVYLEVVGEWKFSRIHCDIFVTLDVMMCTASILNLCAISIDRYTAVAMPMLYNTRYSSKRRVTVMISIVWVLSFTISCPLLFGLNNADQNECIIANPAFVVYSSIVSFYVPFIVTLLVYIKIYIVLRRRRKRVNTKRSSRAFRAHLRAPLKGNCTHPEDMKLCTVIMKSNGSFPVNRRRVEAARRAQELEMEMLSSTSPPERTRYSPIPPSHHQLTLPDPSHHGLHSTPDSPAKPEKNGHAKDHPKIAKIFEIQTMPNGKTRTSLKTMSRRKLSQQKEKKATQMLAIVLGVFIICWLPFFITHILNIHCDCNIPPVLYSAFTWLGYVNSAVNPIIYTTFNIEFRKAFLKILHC
DAT, sequence (Q01959 whole entry, species assumed): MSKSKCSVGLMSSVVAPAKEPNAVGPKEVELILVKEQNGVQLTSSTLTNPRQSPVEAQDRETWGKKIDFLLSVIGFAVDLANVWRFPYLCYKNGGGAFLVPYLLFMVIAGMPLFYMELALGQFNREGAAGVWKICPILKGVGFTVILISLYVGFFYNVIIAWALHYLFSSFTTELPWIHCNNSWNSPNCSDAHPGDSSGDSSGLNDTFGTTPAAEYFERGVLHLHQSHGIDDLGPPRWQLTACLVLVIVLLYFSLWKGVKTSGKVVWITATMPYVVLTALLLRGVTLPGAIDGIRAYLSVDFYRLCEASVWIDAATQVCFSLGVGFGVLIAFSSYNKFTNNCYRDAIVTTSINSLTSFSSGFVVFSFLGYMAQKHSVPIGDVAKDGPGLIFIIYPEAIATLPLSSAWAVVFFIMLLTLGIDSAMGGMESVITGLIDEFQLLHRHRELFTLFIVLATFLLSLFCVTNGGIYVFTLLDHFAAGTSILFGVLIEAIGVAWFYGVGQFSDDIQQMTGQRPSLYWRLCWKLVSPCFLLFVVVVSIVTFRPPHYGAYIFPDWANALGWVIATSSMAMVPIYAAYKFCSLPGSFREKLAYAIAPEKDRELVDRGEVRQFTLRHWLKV

For orientation: IC50 means the midpoint of a concentration-inhibition curve. `c1ccc2c(CN3CCC(c4ccc5nc[nH]c5c4)C3)c[nH]c2c1` (stereo not shown) [MDC-161502-037]: the IC50 stood at 0.461 µM at D2 receptor [1], 0.191 µM against DAT and 0.269 µM at D2 receptor [2].
As to `c1ccc2c(CN3CCC(c4ccc5[nH]nnc5c4)C3)c[nH]c2c1` (stereo not shown) [MDC-161502-040], on DAT, the midpoint of inhibition, the IC50, lay at 0.0528 µM.
`c1ccc2c(CN3CCC(c4cccc5[nH]ncc45)C3)c[nH]c2c1` (stereo not shown) [MDC-161502-038]: the concentration for half-maximal inhibition (IC50) on D2 receptor [1] came out at 0.0102 µM; on DAT, 0.0875 µM; on D2 receptor [2], 0.00622 µM.
As to `Cc1cc2c(s1)Nc1ccccc1N=C2N1CCN(C)CC1` [Olanzapine, olanzapine, reference compound], in assay [3], the “Distance resulting from the activity, First 30 min” value was 208491 and the “Distance resulting from the activity, Last 30 min” value is recorded as 80518. For the same molecule, in assay [4], the “Distance resulting from the activity, First 30 min” value was 227653 and the “Distance resulting from the activity, Last 30 min” value came to 158673.
On to `Oc1cccc(C2CCN(Cc3c[nH]c4ncccc34)C2)c1` (stereo not shown) [MDC-161502-034], for which the IC50 at D2 receptor [1] amounted to 0.00202 µM; at DAT, 0.685 µM; on D2 receptor [2], 0.00199 µM.
`OC1(c2ccc(Cl)cc2)CCN(Cc2c[nH]c3ccccc23)C1` (stereo not shown) [compound 4]: the “Antagonism to D2 receptor (in words)” value at D2 receptor [5] is reported as “substantially no antagonism to D2 receptor”. The “D4 receptor antagonism (in words)” value on D4 receptor is “moderate intensity of D4 receptor antagonism”.
For the molecule `Oc1cc(C2CCN(Cc3c[nH]c4ccccc34)C2)ccc1F` (stereo not shown) [MDC-161502-031], the values for the IC50 at D2 receptor [1], against DAT and at D2 receptor [2] were 0.0224 µM, 0.0283 µM and 0.0145 µM, respectively.
For `c1ccc2c(CN3CCC(c4ccc5cn[nH]c5c4)C3)c[nH]c2c1` (stereo not shown) [MDC-161502-036] the same measures were 0.298 µM, 0.841 µM and 0.471 µM.
For `Oc1cccc(C2CCN(Cc3n[nH]c4ccccc34)C2)c1` (stereo not shown) [MDC-161502-033] the same measures were 0.00683 µM, 0.111 µM and 0.00228 µM.

These data come from US20210024498A1, “TETRAHYDROPYRROLE COMPOUND, PREPARATION METHOD THEREFOR, PHARMACEUTICAL COMPOSITION CONTAINING SAME, AND USE THEREOF” (MEDICONNS (SHANGHAI) BIOPHARMACEUTICAL CO., LTD, priority 2017, published 2021).
